Test results taken from US10124008B2, “Use of inhibitors of acid sphingomyelinase to treat acquired and inherited retinal degenerations” (Wisconsin Alumni Research Foundation, priority 2014, dated 2018).
“Also recorded” adds a separate entry of the source.

How the values were obtained:
[1] = test system: LC3B-II and p62 in primary RPE monolayers; assay: Immunoblotting of LC3B-II and p62 in polarized primary RPE monolayers; format: cell-based, porcine
Description: RPE harvested from mouse eyecups were sonicated in lysis buffer with protease inhibitors for 10 min. Primary RPE on TRANSWELL filters were harvested and lysed with NE-PER nuclear and cytoplasmic extraction reagents (Thermo Scientific #78833) according to the manufacturer's recommendation. Protein concentrations were measured with DC assay (BioRad). […] Proteins were then transferred onto nitrocellulose membrane using IBLOT dry transfer system (INVITROGEN), blocked in 5% milk in TBS-T for 1 hour before incubating in primary antibody overnight at 4° C. Membranes were probed with antibodies to LC3B (1:3000, Novus NB600-1384 for pig and 1:500, Sigma L7543 for mouse), p62/SQSTM1 (1:1000, ARP03-GP62-C) and actin (1:5000, Santa Cruz) followed by horseradish peroxidase-conjugated secondary antibodies. Immunoblots were visualized by ECL substrate (Thermo Scientific) and quantified using Image Studio (LI-COR). […] Other drugs used were the mTOR inhibitors Torin 1 and Torin 2 (50 nM and 1.5 μM, respectively, for 2 h, TOCRIS), the vacuolar ATPase inhibitor bafilomycin A1 (100 nM for 2 h, EMD Millipore), the LXRα agonist TO901317 (1 μM for 20 h, Cayman Chemicals), the HDAC6 inhibitor trichostatin A (TSA, 500 nM, 16 h, Sigma) and the ASMase inhibitor desipramine (10 μM for 3 h, Sigma). To depolymerize MTs, cells were treated with 33 μM nocodazole for 30 minutes, followed by cold-treatment (4° C.) for 30 minutes (Kreitzer et al., 2003). At the concentrations and exposure times used, none of these drugs caused alterations in RPE cell morphology or physiology (monitored by TER measurements, ZO-1 and organelle marker staining). […] Conversion of LC3B-I to its lipidated form (LC3B-II) is an indicator of autophagosome biogenesis and p62 levels are a measure of autophagic flux (Klionsky et al., 2012).

primary RPE cells = assay: Live imaging of tandem fluorescent mRFP-GFP-LC3 (tfLC3), autophagic flux; format: cell-based, porcine; conditions: for autophagic flux / autophagosome-lysosome fusion (tfLC3 EGFP:mRFP): RPE with A2E, 3 h drug incubation (TO901317 1 μM 20 h); for autophagy after mTOR inhibition: polarized primary RPE, Torin 1 50 nM and Torin 2 1.5 μM, 2 h
Description: RPE cells were transfected with EGFP-LC3 or tandem fluorescent mRFP-GFP-LC3 (Addgene) using the AMAXA NUCLEOFECTOR II (Lonza). Approximately 1.5 million cells and 5 μg of plasmid DNA were used for each transfection. Cells were plated either on serum-coated glass-bottom dishes (Mattek) or […] filters at confluence.
Andor IQ2 software was used for image acquisition and Imaris x64 (Bitplane) for image analysis. […] Trafficking data was collected from three separate transfections for a total of at least 12-30 movies captured for treatment. During image acquisition care was taken to maintain the same laser power, exposure and electron-multiplying gain settings. […] After background subtraction (using the background subtraction algorithm and identical automatic threshold for all images) and smoothing (Gaussian algorithm with identical threshold settings for all images), Spots and Tracks algorithms were used to identify vesicles and follow them through time and cell-space to obtain total track length and track displacement.
We used tandem fluorescent mRFP-GFP-LC3 (tfLC3) to monitor autophagy in primary RPE cells in real time.
(§1) We performed two initial screens: first, we compared the ability of functional inhibitors (fluoxetine and amitriptyline) with that of the lone structural ASMase inhibitor zoledronic acid in decreasing acetylated tubulin. Here, polarized RPE monolayers with or without A2E were treated with one of the three inhibitors (10 μM, 3 h). Desipramine as a positive control. At the end of the incubation period, cells were fixed and stained for acetylated tubulin, imaged and the amount of acetylated tubulin in the cells was quantified. Second, we evaluated three additional drugs (sertraline, astemizole and fexofenadine) for their abilities to increase autophagy in the RPE. Cells with or without bisretinoids were transfected with mRFP-GFP-LC3, starved to induce autophagy, treated with drugs and imaged as in FIG. 9D.

[2] = test system: EGFP-LC3-labeled autophagosomes in primary RPE; assay: Live imaging of EGFP-LC3 autophagosome trafficking (spinning disk, Boolean gating); format: cell-based, porcine
Description: RPE cells were transfected with EGFP-LC3 or tandem fluorescent mRFP-GFP-LC3 (Addgene) using the AMAXA NUCLEOFECTOR II (Lonza). Approximately 1.5 million cells and 5 μg of plasmid DNA were used for each transfection. Cells were plated either on serum-coated glass-bottom dishes (Mattek) or TRANSWELL filters at confluence. Live imaging of autophagosome traffic and autophagic flux were performed on the Revolution XD spinning disk microscopy system (Andor) equipped with the Yokogawa CSU-X1 confocal spinning disk head, Nikon Eclipse Ti inverted microscope surrounded by an Okolab cage incubator, iXon x3 897 EM-CCD camera, Andor laser combiner with four solid state lasers at 405, 488, 561, and 640 nm and corresponding band-pass filter sets (Sutter), and ASI motorized stage with piezo-Z for rapid Z-stack acquisition. Andor IQ2 software was used for image acquisition and Imaris x64 (Bitplane) for image analysis. For live imaging, cells were serum starved for 2 h to induce autophagy and rapid z-stacks were acquired using the 100×1.49 NA Apo TIRF objective (Nikon) for ˜50 frames at 37° C. Trafficking data was collected from three separate transfections for a total of at least 12-30 movies captured for treatment. During image acquisition care was taken to maintain the same laser power, exposure and electron-multiplying gain settings. Trafficking analysis was carried out using the Spots and Tracks modules of the Imaris software (Liu et al., 2010). After background subtraction (using the background subtraction algorithm and identical automatic threshold for all images) and smoothing (Gaussian algorithm with identical threshold settings for all images), Spots and Tracks algorithms were used to identify vesicles and follow them through time and cell-space to obtain total track length and track displacement. […] Data were analyzed using either a two-tailed t-test or one-way ANOVA followed by Bonferroni or Dunnett's post-tests (GraphPad PRISM). Unless otherwise stated, data are presented as Mean±S.E.M. of ≥3 independent experiments, with 3 to 4 replicates per condition per experiment. […] Regions were defined by: minimum or maximum track length, minimum or maximum displacement and a slope of 0.5 (displacement divided by length). Tracks with slope <0.5 were taken as less straight (region 2) than those with slope of >0.5 (region 3). Tracks within each region are represented as a percent of total number of tracks in Tables 1 and 2. One-way ANOVA or t-tests were used to compare regions between treatment groups. […] To examine the efficiency of autophagosome transport, Spots and Tracks algorithms in Imaris were used to calculate how far each autophagosome traveled (track displacement length) as a function of the movement required to travel that distance (total track length) (Liu et al., 2010).

[3] = test system: acetylated tubulin in polarized primary RPE; assay: Immunofluorescence staining of acetylated and tyrosinated tubulin; format: cell-based, porcine; conditions: for acetylated tubulin in RPE with A2E: inhibitors 10 μM for 3 h, 48 h after A2E treatment
Description: ALEXAFLUOR secondary antibodies were used at 1:500 and rhodamine-phalloidin (Cytoskeleton, PHDR1) at 1:200. Filters were mounted under coverslips on glass slides under […] (Vector labs), sealed and visualized with Andor Revolution XD spinning disk confocal microscope using a 60×1.4 NA oil objective with identical exposures and gains for each antibody. Acetylated tubulin-labeled stable microtubules (≥5 μm in length) after nocodazole treatment were analyzed manually in the Surpass mode of Imaris (Bitplane).
as §1

[4] = Table 4, potential issues; cited from earlier work
[5] = A2E-laden RPE after mTOR inhibition, TO901317 1 μM 20 h, desipramine 10 μM 3 h
[6] = percent of total EGFP-LC3 tracks, serum-starved RPE, TSA 500 nM

## CO/C1=C\C(C)=C\[C@@H](C)[C@@H](O)[C@@H](C)C/C(C)=C/C=C/[C@H](OC)[C@@H]([C@@H](C)[C@@H](O)[C@H](C)[C@@]2(O)C[C@@H](O)[C@H](C)[C@@H](C(C)C)O2)OC1=O [Bafilomycin A1]
[1]; after mTOR inhibition, agent versus control RPE
  LC3B-II levels (immunoblot): increased LC3B-II after mTOR inhibition in control cells but not cells exposed to A2E

## CC(C)(C(=O)O)c1ccc(C(O)CCCN2CCC(C(O)(c3ccccc3)c3ccccc3)CC2)cc1 (stereo not shown) [Fexofenadine]
Primary RPE cells
  autophagic flux / autophagosome-lysosome fusion (tfLC3 EGFP:mRFP): not as effective as astemizole, sertraline or desipramine in increasing autophagic flux

## O=S(=O)(c1ccccc1)N(CC(F)(F)F)c1ccc(C(O)(C(F)(F)F)C(F)(F)F)cc1 [TO901317]
[1]; [5]
  LC3B-II levels / autophagosome biogenesis (immunoblot): increased autophagosome biogenesis
  p62 levels / autophagic flux (immunoblot): significantly lesser than corresponding condition without TO901317
Primary RPE cells
  autophagic flux / autophagosome-lysosome fusion (tfLC3 EGFP:mRFP): restored autophagic flux in cells with A2E and decreased EGFP fluorescence back to control levels

## CC(/C=C/C(=O)NO)=C\[C@@H](C)C(=O)c1ccc(N(C)C)cc1 [TSA, trichostatin A]
[2]; agent alone versus control RPE
  autophagosome trafficking (long-range, directed movements): replicated the autophagosome trafficking defects seen in cells with A2E
[2]; [6]
  Region 1 (R1) (D <2 μm, L <5 μm): 88.01%
  Region 3 (R3) (L >5 μm, Slope >0.5 μm): 1.64%

## CCC(=O)N1CCN(c2ccc(-n3c(=O)ccc4cnc5ccc(-c6cnc7ccccc7c6)cc5c43)cc2C(F)(F)F)CC1 [Torin 1]
Primary RPE cells
  autophagy after mTOR inhibition: autophagy was upregulated

## Nc1ccc(-c2ccc3ncc4ccc(=O)n(-c5cccc(C(F)(F)F)c5)c4c3c2)cn1 [Torin 2]
Primary RPE cells
  autophagy after mTOR inhibition: autophagy was upregulated

## CCN(CC)CCO[C@H]1CC[C@@]2(C)C(=CC[C@@H]3[C@@H]2CC[C@]2(C)C(=O)CC[C@@H]32)C1 [U18666A]
[3]; agent alone versus control RPE, U18666A 1 μM, 16 h
  acetylated tubulin: Acetylated tubulin also increased

## CN(C)CCC=C1c2ccccc2CCc2ccccc21 [amitriptyline]
[3]
  acetylated tubulin in RPE with A2E: as effective as desipramine in decreasing acetylated tubulin; also recorded: decreased acetylated tubulin levels in RPE with A2E back to control levels

## COc1ccc(CCN2CCC(Nc3nc4ccccc4n3Cc3ccc(F)cc3)CC2)cc1 [astemizole]
Primary RPE cells
  autophagic flux / autophagosome-lysosome fusion (tfLC3 EGFP:mRFP): completely reversed the autophagic block induced by A2E

## CNCCC(Oc1ccc(C(F)(F)F)cc1)c1ccccc1 (stereo not shown) [fluoxetine]
[3]
  acetylated tubulin in RPE with A2E: as effective as desipramine in decreasing acetylated tubulin; also recorded: decreased acetylated tubulin levels in RPE with A2E back to control levels

## CN[C@H]1CC[C@@H](c2ccc(Cl)c(Cl)c2)c2ccccc21 [sertraline]
Primary RPE cells
  autophagic flux / autophagosome-lysosome fusion (tfLC3 EGFP:mRFP): completely reversed the autophagic block induced by A2E

## O=P(O)(O)C(O)(Cn1ccnc1)P(=O)(O)O [zoledronic acid]
[4]
  oral bioavailability: <4% oral
